Measurements from US20250064762A1, “A SUBSTITUTED AROMATIC DICARBONIC ACID AMIDE AS AN INHIBITOR OF THE FERROPTOSIS SUPPRESSOR PROTEIN-1 (FSP1)” (JULIUS-MAXIMILIANS-UNIVERSITÄT WÜRZBURG, priority 2021, published 2025).

What was measured:
Assay type in all cases: cell-based, human
HT1080 cells [1] = test: Western blot of ferroptosis regulators GPX4, ACSL4 and FSP1; settings: 100 μM CPBA; 16 h; liproxstatin-1 100 nM
Protocol: Cultured cells were lysed in 50 mM Tris, pH 7.5; 150 mM NaCl; 1% (v/v) Triton X-100; 0.5% (w/v) sodium deoxycholate; 0.1% (w/v) sodium dodecyl sulfate; 5 μg/mL aprotinin, 1 μg/mL leupeptin, 1 μg/mL pepstatin, and 1 mM 4-(2-aminoethyl)benzenesulfonyl fluoride (Pefabloc). Protein concentrations were determined using the Micro BCA Protein Assay Kit (Thermo Fisher Scientific). Proteins were separated by SDS-PAGE, transferred to nitrocellulose membranes by semidry-blotting, and incubated with the indicated antibodies.
Western blots were quantified using the public domain NIH Image program (developed at the U.S. National Institutes of Health, http://rsb.info.nih.gov/nih-image/). Statistical analysis was performed using GraphPad Prism version 7.05 or 9.1.2 (GraphPad, San Diego, CA, USA).
HT1080 cells were cultured in the presence of liproxstatin-1 (100 nM), and incubated for 16 h with the solvent control DMSO (0.1%), RSL3 (1 μM), FIN56 (10 μM), or BSO (100 μM) in the presence of either 0.1% DMSO (−) or 100 μM CPBA (+). Cells were lysed and probed with the indicated antibodies as described above. […] Quantification of relative intensity of Western Blot bands was performed as described above (see FIG. 7).

HT1080 cells [2] = test: FIN56-induced cell death with or without DGAT1/2 inhibitors; settings: CPBA versus CPBA+iDGAT1/2
Protocol: Cells were seeded onto 96-well plates (5,000 cells per well), and treated with serial dilutions of ferroptosis-inducing compounds (erastin, BSO, RSL3, FIN56) or cytotoxic drugs (staurosporine, nocodazole, tunicamycin, paclitaxel, etoposide, menadione, rotenone, FCCP, carboplatin) in the absence or presence of CPBA or iFSP1 (100 μM or 10 μM, respectively; unless stated otherwise) or the DMSO solvent control. Ferroptotic cell death was evaluated by incubating in the absence or presence of liproxstatin-1 (100 nM), ferrostatin-1 (200 nM), or deferoxamine (100 μM). Cell viability was assessed after 16 h using AquaBluer as an indicator of viable cells according to the manufacturer's recommendations (MultiTarget Pharmaceuticals, LLC). Fluorescence (excitation, 540 nm; emission, 590 nm) was analyzed on a Clariostar microplater reader.
The diglyceride acyltransferase isoforms 1 and 2 (DGAT1, DGAT2) are required to catalyze the formation of triglycerides from diacylglycerol and acyl-CoA.

[3] = system: HT1080 GPX4-knockout (KO) cells; test: Viability of GPX4-knockout cells after α-tocopherol wash-out; settings: 100 μM CPBA; 48-120 h after α-tocopherol wash-out
Protocol: (§1) The following HT1080 fibrosarcoma cell lines were generated using CRISPR/Cas9 technology, as previously described (Doll et al., 2019): HT1080 GPX4-knockout (KO) cells (maintained in the presence of 100 μM α-tocopherol); HT1080 GPX4 knockout cells overexpressing FSP1 (GPX4-KO/FSP1-OE); GPX4-KO cells overexpressing FSP1 and re-expressing GPX4 (GPX4-KO/FSP1-OE/GPX4-OE); HT1080 FSP1-WT or FSP1-KO cells; and HT1080 FSP1-KO cells reconstituted with either FSP1-WT or FSP1-G2A. LOX-IMVI (BRAF V600E heterozygous human melanoma cells) expressing either the Venus mock vector or FSP1-Venus (Doll et al., 2019) were grown in RPMI-1640 supplemented with 10% FCS, 2 mM L-glutamine and Pen/Strep.
In order to study the effect of CPBA-induced sensitization to ferroptosis in the absence of the ferroptosis suppressor GPX4, we generated HT1080 GPX4-knockout (KO) cells using CRISPR/Cas9 technology as described above. Lack of GPX4 expression in GPX4-KO cell lines was confirmed by Western Blot as described above (see FIG. 11). […] Cell viability was assessed at 48 h, 72 h, 96 h and 120 h using AquaBluer.

[4] = system: GPX4-KO/FSP1-OE HT1080 cells; test: Viability of FSP1-dependent GPX4-KO cells with serial dilutions of CPBA, no FINs; settings: serial dilutions of CPBA, no FINs
Protocol: as §1
Next, we tested the effect of CPBA on ferroptotic cell death in GPX4-deficient HT1080 cells whose survival depends on the expression of FSP1 in order to suppress ferroptosis in the absence of GPX4. GPX4 knockout cells overexpressing FSP1 (GPX4-KO/FSP1-OE), or GPX4-KO cells overexpressing FSP1 and re-expressing GPX4 (GPX4-KO/FSP1-OE/GPX4-OE) were incubated with serial dilutions of CPBA. Note that no ferroptosis inducers (FINs) were added. Protein expression was confirmed by Western Blot as described above (see FIG. 11).

## O=C(Nc1ccccc1C(=O)O)c1ccc(Oc2ccc(C(=O)Nc3ccccc3C(=O)O)cc2)cc1 [CPBA, 2-[[4-[4-[(2-carboxyphenyl)carbamoyl]phenoxy]benzoyl]amino]-benzoic acid]
HT1080 cells [1]
  expression of GPX4, ACSL4 and FSP1: not affected by the presence of CPBA
HT1080 cells [2]
  influence of lipid droplets on sensitization to FIN56-induced cell death: the absence or presence of lipid droplets did not influence the CPBA-mediated sensitization of HT1080 cells to FIN56-induced cell death
[3]
  ferroptosis in the absence of GPX4: accelerates ferroptosis in the absence of GPX4
[4]
  cell death of GPX4-KO, FSP1-dependent cells: die in a CPBA concentration-dependent manner
